Results on 7 molecules are retold here after patent publication US9045440B2, “Desazadesferrothiocin and desazadesferrothiocin polyether analogues as metal chelation agents” (FerroKin Biosciences, Inc., priority 2010, dated 2015).

For series [1] the following is noted: pH 7.4. As for the experimental part: Measurements were taken via LC/MS.
To each 5 μL aliquot of stock solution of each sample was added 500 μL of PBS pH 7.4 and 500 μL of octanol and a stir bar. […] Stir bars were removed and samples centrifuged at 15,000 g for 15 minutes to separate the phases, and pipette and syringe were used to remove the upper (octanol) and lower (buffer) phases to empty tubes, respectively. Aliquots of 5 μL were taken from upper phases and diluted with 495 μL of methanol. Aliquots of 50 μL were taken from lower phases and diluted with 450 μL of methanol. Reference solutions of progesterone or metopolol were also prepared and tested as standards.

The conditions of series [2]: mode of iron excretion; cited from earlier work.
The conditions of series [3]: cited from earlier work.
For series [4] the following is noted: rats, 300 μmol/kg intraperitoneally immediately after uranyl acetate; cited from earlier work.
Where [5] appears, read: ratio of ICE in one species (monkey) to the other (rat).

Like-named read-outs stand apart in the source and are kept apart here.

With `COCCc1ccc(OCC(O)CNC(C)C)cc1` (centres unmarked) [metopolol], the LogD in series [1] is on record as −0.27.

Consider `COCCOCCOc1cccc(C2=N[C@@](C)(C(=O)O)CS2)c1O` [Example D, (S)-2-(2-hydroxy-3-(2-(2-methoxyethoxy)ethoxy)phenyl)-4-methyl-4,5-dihydrothiazole-4-carboxylic acid], for which the “Rodent ICE [urine/bile]” value in series [2] was “[99/1]”.

In the case of `COCCOCCOCCOc1cccc(C2=N[C@@](C)(C(=O)O)CS2)c1O` [Example E, (S)-2-(2-hydroxy-3-(2-(2-(2-methoxyethoxy)ethoxy)ethoxy)phenyl)-4-methyl-4,5-dihydrothiazole-4-carboxylic acid], in series [2], the “Rodent ICE [urine/bile]” value is “[95/5]”. For the same molecule, in series [3] (mode of iron excretion), the “Primate ICE [urine/bile]” value is “[95/5]”. Further, in series [3] (setting [5]), the “ICE Ratio” value was 2.2.

As to `COCCOCCOCCOCCOc1cccc(C2=N[C@@](C)(C(=O)O)CS2)c1O` [Example F, (S)-2-(3-(2,5,8,11-tetraoxatridecan-13-yloxy)-2-hydroxyphenyl)-4-methyl-4,5-dihydrothiazole-4-carboxylic acid], in series [2], the “Rodent ICE [urine/bile]” value is “[98/2]”. Further, in series [3] (mode of iron excretion), the “Primate ICE [urine/bile]” value is “[25/75]”. The “ICE Ratio” value in series [3] (setting [5]) is 0.8.

As for `COCCOCCOCCOc1ccc(C2=N[C@@](C)(C(=O)O)CS2)c(O)c1` [Example B, (S)-2-(2-hydroxy-4-(2-(2-(2-methoxyethoxy)ethoxy)ethoxy)phenyl)-4-methyl-4,5-dihydrothiazole-4-carboxylic acid], the “Rodent ICE [urine/bile]” value in series [2] was “[90/10]”. Moreover, the “Uranium Excretion [urine/bile]” value in series [4] was “[35/65]”. Moreover, the “Primate ICE [urine/bile]” value in series [3] (mode of iron excretion) is “[96/4]”. Moreover, in series [3] (setting [5]), the “ICE Ratio” value is given as 4.6.

Take `COCCOCCOCCOCCOc1ccc(C2=N[C@@](C)(C(=O)O)CS2)c(O)c1` [Example C, (S)-2-(4-(2,5,8,11-tetraoxatridecan-13-yloxy)-2-hydroxyphenyl)-4-methyl-4,5-dihydrothiazole-4-carboxylic acid]: the “Rodent ICE [urine/bile]” value in series [2] was “[99/1]”. Moreover, in series [3] (mode of iron excretion), the “Primate ICE [urine/bile]” value is “[52/48]”. The “ICE Ratio” value in series [3] (setting [5]) is given as 0.8.

As to `COCCOCCOc1ccc(C2=N[C@@](C)(C(=O)O)CS2)c(O)c1` [Example A, (S)-2-(2-hydroxy-4-(2-(2-methoxyethoxy)ethoxy)phenyl)-4-methyl-4,5-dihydrothiazole-4-carboxylic acid], the “Rodent ICE [urine/bile]” value in series [2] was “[97/3]”. For the same molecule, the “ICE Ratio” value is 1.0 in series [3] (primate (capsule) to rodent) and 1.1 in series [3] (primate (sodium salt) to rodent). Also, the “Primate ICE [urine/bile]” value is “[93/7]” in series [3] (given as capsule) and “[83/17]” in series [3] (given as sodium salt).

Usually LogD stands for lipophilicity at a set pH, counting ionised and neutral species. A lower LogD goes with lower lipophilicity.
